Laboratory results as given in US20240139126A1, “NUTRITIONAL COMPOSITIONS FOR SKELETAL MUSCLE” (MITOCHOLINE LTD, priority 0001, published 2024).

Experiments:
primary myotube cultures = assay: Mitochondrial membrane potential (TMRM fluorescence) in primary myotube cultures; format: cell-based, rat; details: DiSu 50 μM; NAM 20 μM
Method: Primary myotube cells were obtained from postnatal day 0-2 (P0-P2) rat pups which were sacrificed by decapitation. Briefly, the rats were immersed in 70% ethanol and the hind-limbs removed under a dissection microscope, in dissection solution containing Dulbecco's Phosphate Buffered Saline (PBS) with penicillin streptomycin (5000 units/ml) and Amphotericin B (2.5 mg/L). The tissues were then digested in 0.2% collagenase solution at 37° C. for 30-40 minutes. The reaction was stopped by adding 2-3 ml fetal bovine serum (FBS), and the tissue suspension was centrifuged at 2010 rpm (700 g) for 10 minutes. The cell pellet was resuspended in pre-warmed growth medium, Dulbecco's modified Eagle's medium (DMEM), containing 20% FBS, 100 i.u./ml penicillin and 200 i.u./ml streptomycin], and plated on 22 mm coverslips that were pre-coated with 0.2% gelatin for 1 hour at 37° C. […]
Tetramethyl rhodamine methyl ester (TMRM) was used to study the changes of the mitochondrial membrane potential (Δψm). […] TMRM fluorescence was excited at 543 nm (HeNe laser), and emission was measured at >560 nm. […] Therefore, the changes in potential are reflected by changes in fluorescence intensity within the mitochondria which is measured after thresholding out the background signal from the cytosol to give a mean value per pixel within the mitochondrial population of a cell. […]

[1] = tested on: dexamethasone-treated primary myotubes; assay: Energy capacity of primary myotubes in dexamethasone-induced sarcopenia cell culture model; format: cell-based, rat; details: in words; for time until cell total energy exhaustion and collapse: IAA 20 μM + oligomycin 2 μg/ml; for energy capacity / energy depletion compared to control cells: IAA + oligomycin
Method: Primary rat myocyte cultures were prepared as described by Yao G., et al. ((Yao G., et. al. (2011) J Cell Sci v.124: 4194-4202. doi: 10.1242/jcs.088260).
All experiments were performed with 5-11 days cultured cells.
To test energetic capacity of cultures myotubes in atrophic conditions, myocyte cultures were differentiated for 5 days followed incubation in the presence of 1, 10, and 100 μM dexamethasone for 24 h.
All cultures were treated with an inhibitor of the ATP production in cellular cytoplasm via glycolysis, Iodoacetic Acid (IAA) (20 μM), and an inhibitor of the ATP production in mitochondria by oxidative phosphorylation, oligomycin (2 μg/ml). […] The cellular concentration of both cations can be indirectly measured by measuring fluorescence of Mag Fura-2 dye.

primary myotubes [2] = assay: Mitophagy/autophagy: co-localization of mitochondria and lysosomes in primary myotubes; format: cell-based, rat; details: blend 50 μM DiSu+20 μM NAM; individual compounds in corresponding molar amounts
Method: (§1) Primary Skeletal Muscle Cell culture. Primary myotube cells were obtained from postnatal day 0-2 (P0-P2) rat pups which were sacrificed by decapitation. Briefly, the rats were immersed in 70% ethanol and the hind-limbs removed under a dissection microscope, in dissection solution containing Dulbecco's Phosphate Buffered Saline (PBS) with penicillin streptomycin (5000 units/ml) and Amphotericin B (2.5 mg/L). The tissues were then digested in 0.2% collagenase solution at 37° C. for 30-40 minutes. The reaction was stopped by adding 2-3 ml fetal bovine serum (FBS), and the tissue suspension was centrifuged at 2010 rpm (700 g) for 10 minutes. The cell pellet was resuspended in pre-warmed growth medium, Dulbecco's modified Eagle's medium (DMEM), containing 20% FBS, 100 i.u./ml penicillin and 200 i.u./ml streptomycin], and plated on 22 mm coverslips that were pre-coated with 0.2% gelatin for 1 hour at 37° C. Cells were then cultured in a humidified CO2 incubator (5% CO2 in air) at 37° C. After 2 or 3 days, the medium was changed to a low-serum medium (DMEM containing 10% FBS without antibiotics), and was subsequently renewed every 3 or 4 days. All experiments were performed in vitro between days 2 and 11 in culture when spindle-shaped myoblasts had proliferated and aligned themselves for fusion (˜70% confluency).

primary myotubes [3] = assay: NADH autofluorescence: redox index and mitochondrial pool of NADH in primary myotubes; format: cell-based, rat; details: blends 100 μM DiSu+40 μM NAM, 50 μM DiSu+20 μM NAM, choline 100 μM, succinate 50 μM
Method: as §1
NADH autofluorescence was excited at 351 and measured at 375-470 nm.

[4] = tested on: adult onset mitochondrial myopathy patients; set-up: dose or concentration left out as unconfirmed; details: cited from earlier work
mice = details: dietary supplementation; cited from earlier work

Molecule	TMRM fluorescence compared to control (primary myotube cultures)	time until cell total energy exhaustion and collapse [1]	autophagy (co-localization of mitochondria and lysosomes) (primary myotubes [2])	redox index (NADH-dependent mitochondrial respiration) (primary myotubes [3])	energy capacity / energy depletion compared to control cells [1]	blood and muscle NAD levels, muscle strength and mitochondrial biogenesis [4]	endurance exercise ability (mice)
C[N+](C)(C)CCO.C[N+](C)(C)CCO.O=C([O-])CCC(=O)[O-] [DiSu, dicholine succinate]	increase in TMRM fluorescence	extended the time until cell total energy exhaustion and collapse	significantly increase autophagy	–	–	–	–
NC(=O)c1cccnc1 [NAM, nicotinamide]	increase in TMRM fluorescence	–	not	did not induce significant changes	Neither choline or succinate or NAM treatments had a noticeable effect	increased in all human subjects	–
O=C([O-])CCC(=O)[O-].[Na+].[Na+] [Succinate*, Sodium succinate (salt)]	–	–	not	did not induce significant changes	Neither choline or succinate or NAM treatments had a noticeable effect	–	increased endurance exercise ability
CN(CC(=O)O)C(=N)N [creatine]	–	extended the time until cell total energy exhaustion and collapse	–	–	–	–	–
Choline bitartrate [Choline**]	–	–	not	–	–	–	–
